Laboratory results from patent publication US12049450B2, “Pyridyloxy-carboxylate derivative and preparation method therefor, herbicidal composition, and use” (Qingdao Kingagroot Chemical Compound Co., Ltd., priority 2018, dated 2024).

What was measured:
Assay in all cases: Post-emergence test experiment (greenhouse pot, spray at 2-3 leaf stage)
Assay type in all cases: in vivo
Details in all cases: 1000 g/ha; post-emergence spray at 2-3 leaf stage; assessed after 3 weeks; fresh weight inhibition rate
[1] = test system: Galium spurium
Method in brief: (§1)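 Activity graded levels 0-5 by fresh-weight inhibition (level 5 above 85%, level 0 below 5%), assessed 3 weeks after treatment. Plants grown in greenhouse pots were sprayed post-emergence at 2-3 leaves using acetone/tween-80 solutions with methyl oleate synergist (1.5 L/ha).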

[2] = test system: Echinochloa crusgalli
Method in brief: as §1

[3] = test system: Digitaria sanguinalis
Method in brief: as §1

[4] = test system: Abutilon theophrasti
Method in brief: as §1

[5] = test system: Monochoria vaginalis
Method in brief: as §1

Row | SMILES | Activity level (growth inhibition rate) Galium spurium [1] | Activity level (growth inhibition rate) Echinochloa crusgalli [2] | Activity level (growth inhibition rate) Digitaria sanguinalis [3] | Activity level (growth inhibition rate) Abutilon theophrasti [4] | Activity level (growth inhibition rate) Monochoria Vaginalis [5]
1 | CC(Oc1nc(F)c(Cl)c(N)c1Cl)C(=O)OCc1cccc(C(F)(F)F)c1 (stereo not shown) [Compound 209] | 5 (Level 5: the growth inhibition rate is greater than 85%) | 5 (Level 5: the growth inhibition rate is greater than 85%) | 5 (Level 5: the growth inhibition rate is greater than 85%) | 5 (Level 5: the growth inhibition rate is greater than 85%) | 5 (Level 5: the growth inhibition rate is greater than 85%)
2 | CC(Oc1nc(F)c(Cl)c(N)c1Cl)C(=O)OCc1ccc(C(F)(F)F)cc1 (stereo not shown) [Compound 210] | 5 (Level 5: the growth inhibition rate is greater than 85%) | 5 (Level 5: the growth inhibition rate is greater than 85%) | 5 (Level 5: the growth inhibition rate is greater than 85%) | 5 (Level 5: the growth inhibition rate is greater than 85%) | 5 (Level 5: the growth inhibition rate is greater than 85%)
3 | CC(Oc1nc(F)c(Cl)c(N)c1Cl)C(=O)OCc1cccc2ccccc12 (stereo not shown) [Compound 211] | 5 (Level 5: the growth inhibition rate is greater than 85%) | 5 (Level 5: the growth inhibition rate is greater than 85%) | 5 (Level 5: the growth inhibition rate is greater than 85%) | 5 (Level 5: the growth inhibition rate is greater than 85%) | 5 (Level 5: the growth inhibition rate is greater than 85%)
4 | CC(Oc1nc(F)c(Cl)c(N)c1Cl)C(=O)OCc1ccco1 (stereo not shown) [Compound 212] | 5 (Level 5: the growth inhibition rate is greater than 85%) | 5 (Level 5: the growth inhibition rate is greater than 85%) | 5 (Level 5: the growth inhibition rate is greater than 85%) | 5 (Level 5: the growth inhibition rate is greater than 85%) | 5 (Level 5: the growth inhibition rate is greater than 85%)
5 | CC(Oc1nc(F)c(Cl)c(N)c1Cl)C(=O)OCc1ccoc1 (stereo not shown) [Compound 213] | 5 (Level 5: the growth inhibition rate is greater than 85%) | 5 (Level 5: the growth inhibition rate is greater than 85%) | 5 (Level 5: the growth inhibition rate is greater than 85%) | 5 (Level 5: the growth inhibition rate is greater than 85%) | 5 (Level 5: the growth inhibition rate is greater than 85%)
6 | CC(Oc1nc(F)c(Cl)c(N)c1Cl)C(=O)OCc1cccs1 (stereo not shown) [Compound 214] | 5 (Level 5: the growth inhibition rate is greater than 85%) | 5 (Level 5: the growth inhibition rate is greater than 85%) | 5 (Level 5: the growth inhibition rate is greater than 85%) | 5 (Level 5: the growth inhibition rate is greater than 85%) | 5 (Level 5: the growth inhibition rate is greater than 85%)
7 | CC(Oc1nc(F)c(Cl)c(N)c1Cl)C(=O)OCc1ccsc1 (stereo not shown) [Compound 215] | 5 (Level 5: the growth inhibition rate is greater than 85%) | 5 (Level 5: the growth inhibition rate is greater than 85%) | 5 (Level 5: the growth inhibition rate is greater than 85%) | 5 (Level 5: the growth inhibition rate is greater than 85%) | 5 (Level 5: the growth inhibition rate is greater than 85%)
8 | CC(Oc1nc(F)c(Cl)c(N)c1Cl)C(=O)OCc1ccnn1C (stereo not shown) [Compound 216] | 5 (Level 5: the growth inhibition rate is greater than 85%) | 5 (Level 5: the growth inhibition rate is greater than 85%) | 5 (Level 5: the growth inhibition rate is greater than 85%) | 5 (Level 5: the growth inhibition rate is greater than 85%) | 5 (Level 5: the growth inhibition rate is greater than 85%)
9 | CC(Oc1nc(F)c(Cl)c(N)c1Cl)C(=O)OCc1cnn(C)c1 (stereo not shown) [Compound 217] | 5 (Level 5: the growth inhibition rate is greater than 85%) | 5 (Level 5: the growth inhibition rate is greater than 85%) | 5 (Level 5: the growth inhibition rate is greater than 85%) | 5 (Level 5: the growth inhibition rate is greater than 85%) | 5 (Level 5: the growth inhibition rate is greater than 85%)
10 | Cc1ccccc1CSC(=O)C(C)Oc1nc(F)c(Cl)c(N)c1Cl (stereo not shown) [Compound 218] | 5 (Level 5: the growth inhibition rate is greater than 85%) | 5 (Level 5: the growth inhibition rate is greater than 85%) | 5 (Level 5: the growth inhibition rate is greater than 85%) | 5 (Level 5: the growth inhibition rate is greater than 85%) | 5 (Level 5: the growth inhibition rate is greater than 85%)
11 | Cc1cccc(CSC(=O)C(C)Oc2nc(F)c(Cl)c(N)c2Cl)c1 (stereo not shown) [Compound 219] | 5 (Level 5: the growth inhibition rate is greater than 85%) | 5 (Level 5: the growth inhibition rate is greater than 85%) | 5 (Level 5: the growth inhibition rate is greater than 85%) | 5 (Level 5: the growth inhibition rate is greater than 85%) | 5 (Level 5: the growth inhibition rate is greater than 85%)
12 | Cc1ccc(CSC(=O)C(C)Oc2nc(F)c(Cl)c(N)c2Cl)cc1 (stereo not shown) [Compound 220] | 5 (Level 5: the growth inhibition rate is greater than 85%) | 5 (Level 5: the growth inhibition rate is greater than 85%) | 5 (Level 5: the growth inhibition rate is greater than 85%) | 5 (Level 5: the growth inhibition rate is greater than 85%) | 5 (Level 5: the growth inhibition rate is greater than 85%)
13 | CC(Oc1nc(F)c(Cl)c(N)c1Cl)C(=O)SCc1ccccc1F (stereo not shown) [Compound 221] | 5 (Level 5: the growth inhibition rate is greater than 85%) | 5 (Level 5: the growth inhibition rate is greater than 85%) | 5 (Level 5: the growth inhibition rate is greater than 85%) | 5 (Level 5: the growth inhibition rate is greater than 85%) | 5 (Level 5: the growth inhibition rate is greater than 85%)
14 | CC(Oc1nc(F)c(Cl)c(N)c1Cl)C(=O)SCc1cccc(F)c1 (stereo not shown) [Compound 222] | 5 (Level 5: the growth inhibition rate is greater than 85%) | 5 (Level 5: the growth inhibition rate is greater than 85%) | 5 (Level 5: the growth inhibition rate is greater than 85%) | 5 (Level 5: the growth inhibition rate is greater than 85%) | 5 (Level 5: the growth inhibition rate is greater than 85%)
15 | CC(Oc1nc(F)c(Cl)c(N)c1Cl)C(=O)SCc1ccc(F)cc1 (stereo not shown) [Compound 223] | 5 (Level 5: the growth inhibition rate is greater than 85%) | 5 (Level 5: the growth inhibition rate is greater than 85%) | 5 (Level 5: the growth inhibition rate is greater than 85%) | 5 (Level 5: the growth inhibition rate is greater than 85%) | 5 (Level 5: the growth inhibition rate is greater than 85%)
16 | CC(Oc1nc(F)c(Cl)c(N)c1Cl)C(=O)SCc1ccccc1C#N (stereo not shown) [Compound 224] | 5 (Level 5: the growth inhibition rate is greater than 85%) | 5 (Level 5: the growth inhibition rate is greater than 85%) | 5 (Level 5: the growth inhibition rate is greater than 85%) | 5 (Level 5: the growth inhibition rate is greater than 85%) | 5 (Level 5: the growth inhibition rate is greater than 85%)
17 | CC(Oc1nc(F)c(Cl)c(N)c1Cl)C(=O)SCc1ccc(C#N)cc1 (stereo not shown) [Compound 225] | 5 (Level 5: the growth inhibition rate is greater than 85%) | 5 (Level 5: the growth inhibition rate is greater than 85%) | 5 (Level 5: the growth inhibition rate is greater than 85%) | 5 (Level 5: the growth inhibition rate is greater than 85%) | 5 (Level 5: the growth inhibition rate is greater than 85%)
